Experimental data taken from article PMC9587990, “Molecular basis for isoform-selective inhibition of presenilin-1 by MRK-560” (Nature Communications, 2022).
Where “and” joins values, the source holds several entries; their conditions need not be identical. Identical values can stand only once. Like-named read-outs stand apart in the source and are kept apart here.

Key:
[1] = molecular target: T1, PS2 I288L γ-secretase complex (Homo sapiens, UniProt P49810, I288L); assay: in vitro cleavage assay, Aβ40 production by AlphaLISA; assay type: biochemical; details: for remaining activity at 0.002 µM / remaining activity at 0.04 µM / remaining activity at 0.2 µM / remaining activity at 1 µM / remaining activity at 10 µM / remaining activity at 20 µM: 4 h
T1 construct: made in house
T1 sequence (P49810 whole entry I288L): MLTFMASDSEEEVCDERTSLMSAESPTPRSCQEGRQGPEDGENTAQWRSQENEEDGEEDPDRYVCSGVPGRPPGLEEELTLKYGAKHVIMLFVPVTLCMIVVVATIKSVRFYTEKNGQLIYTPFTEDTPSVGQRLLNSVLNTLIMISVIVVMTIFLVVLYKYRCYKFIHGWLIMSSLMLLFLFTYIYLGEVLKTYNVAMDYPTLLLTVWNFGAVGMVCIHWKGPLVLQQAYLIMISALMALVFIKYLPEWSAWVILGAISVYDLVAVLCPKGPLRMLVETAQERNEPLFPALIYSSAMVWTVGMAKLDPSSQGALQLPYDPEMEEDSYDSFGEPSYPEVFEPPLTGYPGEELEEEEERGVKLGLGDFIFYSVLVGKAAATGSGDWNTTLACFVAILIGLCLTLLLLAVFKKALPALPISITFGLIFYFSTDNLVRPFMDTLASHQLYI
T1 sequence (Q96BI3 whole entry partner): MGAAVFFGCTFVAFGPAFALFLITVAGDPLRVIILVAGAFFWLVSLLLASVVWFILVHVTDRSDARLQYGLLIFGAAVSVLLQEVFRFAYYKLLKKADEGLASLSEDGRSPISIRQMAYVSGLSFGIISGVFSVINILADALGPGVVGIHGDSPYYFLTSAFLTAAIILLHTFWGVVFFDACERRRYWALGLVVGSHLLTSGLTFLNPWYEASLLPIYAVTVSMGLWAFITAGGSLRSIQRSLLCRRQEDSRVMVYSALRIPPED
T1 sequence (Q9NZ42 whole entry partner): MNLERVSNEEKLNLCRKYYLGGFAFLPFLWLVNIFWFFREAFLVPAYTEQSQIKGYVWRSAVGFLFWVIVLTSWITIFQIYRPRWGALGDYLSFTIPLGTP
T1 sequence (Q92542 34-709 partner): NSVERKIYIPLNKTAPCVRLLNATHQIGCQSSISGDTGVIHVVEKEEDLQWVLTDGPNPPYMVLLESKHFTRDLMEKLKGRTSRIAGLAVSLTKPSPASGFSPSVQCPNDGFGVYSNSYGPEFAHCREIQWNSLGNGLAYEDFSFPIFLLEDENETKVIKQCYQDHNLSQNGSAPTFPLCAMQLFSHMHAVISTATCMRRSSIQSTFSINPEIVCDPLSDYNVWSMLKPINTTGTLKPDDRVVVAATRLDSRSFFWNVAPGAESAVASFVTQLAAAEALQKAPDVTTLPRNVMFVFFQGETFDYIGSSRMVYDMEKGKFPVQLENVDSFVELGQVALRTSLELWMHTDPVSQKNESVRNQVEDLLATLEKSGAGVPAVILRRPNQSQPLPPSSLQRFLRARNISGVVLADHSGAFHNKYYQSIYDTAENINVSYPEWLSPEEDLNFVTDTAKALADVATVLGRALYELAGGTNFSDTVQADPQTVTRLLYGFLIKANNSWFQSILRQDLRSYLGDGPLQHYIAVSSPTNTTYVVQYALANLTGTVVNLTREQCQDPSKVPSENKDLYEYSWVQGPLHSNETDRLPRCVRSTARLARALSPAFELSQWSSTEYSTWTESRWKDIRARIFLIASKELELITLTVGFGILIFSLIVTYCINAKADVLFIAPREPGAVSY
Experimental: (§1) In total we generated six variants, including single and double residue swapping of Thr281/Leu282 in PS1 with Pro287/Ile288 in PS2, respectively. MRK-560 response to the six PS1/PS2 mutant-containing complexes, each purified to homogeneity, was examined in the in vitro cleavage assay (Fig. 4). All proteins used for the activity assay were sub-cloned, expressed and purified as described. Protein concentration was determined using the Bradford method. […] The cleavage reaction was conducted at 37 °C for 4 h. The cleaved products of these substrates were detected using a monoclonal antibody (1:1000 dilution, CW0299, CWBio) against the C-terminal Myc tag. Aβ40 production was detected using the AlphaLISA assay (PerkinElmer) as described. The IC50 values and the inhibition curves were calculated using Prism 8.0. Statistical analysis of Aβ40 was performed using Prism 8 (GraphPad Software, San Diego, CA, USA). IC50 were determined by a four-parameter logistic regression. The statistical details can be found in Figs. 1, 4 and legends. Data are expressed as mean ± SD.

[2] = molecular target: T2, PS2 PI287-288TL γ-secretase complex (Homo sapiens, UniProt P49810, I288L/P287T); assay: as above; assay type: biochemical; details: PS2 PI 287 288 TL; for remaining activity at 0.002 µM / remaining activity at 0.04 µM / remaining activity at 0.2 µM / remaining activity at 1 µM / remaining activity at 10 µM / remaining activity at 20 µM: 4 h
T2 construct: made in house
T2 sequence (P49810 whole entry P287T/I288L): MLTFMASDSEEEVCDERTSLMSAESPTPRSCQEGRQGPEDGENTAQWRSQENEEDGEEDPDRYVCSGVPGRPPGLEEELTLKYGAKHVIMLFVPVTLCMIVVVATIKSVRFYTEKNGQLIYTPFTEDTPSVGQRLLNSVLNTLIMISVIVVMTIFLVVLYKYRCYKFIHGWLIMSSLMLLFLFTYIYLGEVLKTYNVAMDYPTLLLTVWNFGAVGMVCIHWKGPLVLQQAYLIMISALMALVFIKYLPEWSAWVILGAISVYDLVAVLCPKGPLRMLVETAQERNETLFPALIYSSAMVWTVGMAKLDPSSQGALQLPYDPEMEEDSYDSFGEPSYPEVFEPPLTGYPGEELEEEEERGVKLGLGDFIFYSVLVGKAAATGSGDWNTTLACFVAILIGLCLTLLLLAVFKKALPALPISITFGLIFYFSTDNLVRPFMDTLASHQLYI
T2 sequence (Q96BI3 whole entry partner): as the sequence (Q96BI3 whole entry partner) above
T2 sequence (Q9NZ42 whole entry partner): as the sequence (Q9NZ42 whole entry partner) above
T2 sequence (Q92542 34-709 partner): as the sequence (Q92542 34-709 partner) above
Experimental: as §1

[3] = MRK-560 2 nM, mean of 3 replicates, read-out: Normalized production (control=1), Mean
[4] = MRK-560 2 nM, replicates, read-out: Normalized production (control=1)
[5] = MRK-560 40 nM, mean of 3 replicates, read-out: Normalized production (control=1), Mean
[6] = MRK-560 40 nM, replicates, read-out: Normalized production (control=1)
[7] = MRK-560 200 nM, mean of 3 replicates, read-out: Normalized production (control=1), Mean
[8] = MRK-560 200 nM, replicates, read-out: Normalized production (control=1)
[9] = MRK-560 1 μM, mean of 3 replicates, read-out: Normalized production (control=1), Mean
[10] = MRK-560 1 μM, replicates, read-out: Normalized production (control=1)
[11] = MRK-560 10 μM, mean of 3 replicates, read-out: Normalized production (control=1), Mean
[12] = MRK-560 10 μM, replicates, read-out: Normalized production (control=1)
[13] = MRK-560 20 μM, mean of 3 replicates, read-out: Normalized production (control=1), Mean
[14] = MRK-560 20 μM, replicates, read-out: Normalized production (control=1)

- remaining activity at 0.002 µM [1, 3]: 110%
- remaining activity at 0.002 µM [1, 4]: 110%
- remaining activity at 0.04 µM [1, 5]: 65.9%
- remaining activity at 0.04 µM [1, 6]: 68%
- remaining activity at 0.2 µM [1, 7]: 17.7%
- remaining activity at 0.2 µM [1, 8]: 17.9%
- remaining activity at 1 µM [1, 9]: 5.3%
- remaining activity at 1 µM [1, 10]: 5.2%
- remaining activity at 10 µM [1, 11]: 1.39%
- remaining activity at 10 µM [1, 12]: 1.35%
- remaining activity at 20 µM [1, 13]: 1.69%
- remaining activity at 20 µM [1, 14]: 1.61%
- Caculated Aβ40 production ([1]; MRK-560 2 nM, replicates): 534.8273 and 537.0982 and 529.5442
- raw data from α-Lisa reading ([1]; MRK-560 2 nM, replicates): 78346 and 78633 and 77677
- Caculated Aβ40 production ([1]; MRK-560 40 nM, replicates): 330.6964 and 306.7347 and 323.3048
- raw data from α-Lisa reading ([1]; MRK-560 40 nM, replicates): 51118 and 47725 and 50076
- Caculated Aβ40 production ([1]; MRK-560 200 nM, replicates): 87.0033 and 86.1156 and 85.5883
- raw data from α-Lisa reading ([1]; MRK-560 200 nM, replicates): 14434 and 14291 and 14206
- Caculated Aβ40 production ([1]; MRK-560 1 μM, replicates): 25.2908 and 26.2376 and 25.7761
- raw data from α-Lisa reading ([1]; MRK-560 1 μM, replicates): 4315 and 4473 and 4396
- Caculated Aβ40 production ([1]; MRK-560 10 μM, replicates): 6.5772 and 6.8972 and 6.7964
- raw data from α-Lisa reading ([1]; MRK-560 10 μM, replicates): 1174 and 1228 and 1211
- Caculated Aβ40 production ([1]; MRK-560 20 μM, replicates): 7.8160 and 7.8990 and 8.9905
- raw data from α-Lisa reading ([1]; MRK-560 20 μM, replicates): 1383 and 1397 and 1581
- IC50 ([1]; mean ± SD): 57 ± 10 nM
- remaining activity at 0.002 µM [2, 3]: 88.4%
- remaining activity at 0.002 µM [2, 4]: 89.8%
- remaining activity at 0.04 µM [2, 5]: 38.7%
- remaining activity at 0.04 µM [2, 6]: 36.2%
- remaining activity at 0.2 µM [2, 7]: 6.34%
- remaining activity at 0.2 µM [2, 8]: 6.66%
- remaining activity at 1 µM [2, 9]: 1.64%
- remaining activity at 1 µM [2, 10]: 1.65%
- remaining activity at 10 µM [2, 11]: 0.86%
- remaining activity at 10 µM [2, 12]: 0.88%
- remaining activity at 20 µM [2, 13]: 1.37%
- remaining activity at 20 µM [2, 14]: 1.35%
- Caculated Aβ40 production ([2]; MRK-560 2 nM, replicates): 622.5323 and 598.5358 and 618.8332
- raw data from α-Lisa reading ([2]; MRK-560 2 nM, replicates): 89195 and 86274 and 88747
- Caculated Aβ40 production ([2]; MRK-560 40 nM, replicates): 251.4190 and 280.0544 and 273.5511
- raw data from α-Lisa reading ([2]; MRK-560 40 nM, replicates): 39722 and 43895 and 42953
- Caculated Aβ40 production ([2]; MRK-560 200 nM, replicates): 46.1689 and 42.1835 and 43.6058
- raw data from α-Lisa reading ([2]; MRK-560 200 nM, replicates): 7779 and 7121 and 7356
- Caculated Aβ40 production ([2]; MRK-560 1 μM, replicates): 11.4428 and 11.3299 and 11.2705
- Normalized production (control=1) ([2]; MRK-560 1 μM, replicates): 0.0163
- raw data from α-Lisa reading ([2]; MRK-560 1 μM, replicates): 1994 and 1975 and 1965
- Caculated Aβ40 production ([2]; MRK-560 10 μM, replicates): 6.1091 and 5.7952 and 6.0025
- raw data from α-Lisa reading ([2]; MRK-560 10 μM, replicates): 1095 and 1042 and 1077
- Caculated Aβ40 production ([2]; MRK-560 20 μM, replicates): 9.3406 and 8.5277 and 10.7299
- raw data from α-Lisa reading ([2]; MRK-560 20 μM, replicates): 1640 and 1503 and 1874
SMILES: O=S(=O)(NC1CCC(c2cc(F)ccc2F)(S(=O)(=O)c2ccc(Cl)cc2)CC1)C(F)(F)F (stereo not drawn) [MRK-560, N-[cis-4-[(4-chlorophenyl)sulfonyl]-4-(2,5-difluorophenyl)cyclohexyl]-1,1,1-trifluoromethanesulfonamide]
